From patent US9006191B2, “Silencing of polo-like kinase expression using interfering RNA” (Protiva Biotherapeutics, Inc., priority 2007, dated 2015)
Several values for one entry are separate records, joined by “and”; a condition that tells them apart may be missing. Identical values can stand only once. Entries after “also recorded” stand apart in the source; their conditions may differ.

Experiments:
[1] = system: LS174T cells; test: LS174T cell viability assay; format: cell-based, human; details: SNALP-formulated siRNA, 72 h
Experimental: SNALP containing PLK1424 or PLK773 siRNA (“2:40” SNALP formulation: 2% PEG-cDMA; 40% DLinDMA; 10% DSPC; and 48% cholesterol) were tested for their effects on cell viability and silencing of PLK-1 mRNA in HT29 and LS174T human colon cancer cells. Cells were plated in triplicate at ˜10,000 cells/well. SNALP dosages were as follows: 30 nM; 10 nM; 3.3 nM; 1.1 nM; 0.37 nM; and 0.12 nM. Branched DNA mRNA assays were performed 24 hours following transfection. Cell viability assays were performed at 72 hours following transfection. SNALP containing a non-targeting (GFP) siRNA were used as a negative control. […] The effects on cell viability correlated with silencing of the target PLK-1 mRNA.

[2] = system: human PLK-1 mRNA; test: PLK-1 mRNA in Hep3B tumors (QuantiGene bDNA assay); format: in vivo; details: hepatic Hep3B tumors, single 2 mg/kg IV, 24 h
Experimental: The objectives of this study were as follows: • 1. To determine the level of mRNA silencing in established Hep3B liver tumors following a single IV administration of PLK1424 SNALP. • 2. To confirm the mechanism of mRNA silencing by detecting specific RNA cleavage products using RACE-PCR. • 3. To confirm induction of tumor cell apoptosis by histopathology.
A comparison of the effect of PEG-cDMA and PEG-cDSA 1:57 SNALPs on PLK-1 mRNA silencing was performed using established intrahepatic Hep3B tumors in scid/beige mice. A single 2 mg/kg dose of PLK-1 SNALP containing either PEG-cDMA or PEG-cDSA was administered intravenously. Liver/tumor samples were collected at 24 and 96 hours after SNALP treatment. Control=2 mg/kg Luc-cDMA SNALP at 24 hours.
Measurement of human PLK-1 and GAPDH mRNA in tumor tissues. […] Human PLK-1 and GAPDH mRNA were measured in tumor lystes by the QuantiGene bDNA assay (Panomics) as per the manufacturer's instructions (Quantigene 1.0 Manual). […] Data were expressed as mean PLK-1:GAPDH ratio+/−SD of individual animals. Tumor burden was assessed by homogenizing the complete liver from tumor bearing mice and measuring the total hGAPDH signal (RLU's) within the liver. Values were expressed as hGAPDH RLU/mg total liver.
Subcutaneous tumor models. […] The extent of PLK-1 mRNA knockdown was determined in the Hep3B tumors about 24 hours after SNALP administration.

[3] = system: human PLK-1 mRNA; test: 5′ RACE-PCR in HT29 cells; format: cell-based; details: 10 nM, 24 h
Experimental: (A) HT29 cells were treated with 10 nM SNALP-formulated PLK1424, Luc siRNA or PBS. RNA was isolated 24 hours after transfection and assayed for the specific PLK-1 mRNA cleavage product by 5′-RACE-PCR. (B) Neuro2a cells were treated with SNALP-formulated KSP2263, PLK773 siRNA or PBS. RNA was isolated 24 hours after transfection and assayed for the specific mouse KSP mRNA cleavage product by 5′-RACE-PCR.
The detection of specific RNA cleavage products generated by RISC-mediated hydrolysis of target mRNA is the definitive marker confirming RNAi as the mechanism of gene silencing (39, 40). Activated RISC cleaves target mRNA precisely between the nucleotides complementary to positions 10 and 11 of the siRNA AS strand generating an mRNA cleavage product that is unique to the siRNA sequence. This can be detected in cells using an appropriately designed 5′-rapid amplification of cDNA ends-PCR method (RACE-PCR). We developed RACE-PCR assays to detect the PLK1424-specific cleavage product of human PLK-1 mRNA and the KSP2263-specific cleavage product of mouse KSP mRNA.
5′ RNA Ligase Mediated Rapid Amplification of cDNA ends (5′ RLM RACE).

[4] = system: IFN-α, IFIT1 mRNA; test: In vivo immune stimulation assay in CD1 ICR mice (plasma IFN-α, IFIT1 mRNA); set-up: species or system mouse; details: 1:57 PEG-cDMA SNALP, 3 mg/kg IV, 4 h
Experimental: In vivo immune stimulation assays. Animal studies were performed to test for the immunostimulatory activity of SNALP containing 2′OMe-modified PLK1424 siRNAs. Six-week-old female CD1 ICR mice were used in this study. […] The tolerability of the treatment regime was monitored by animal appearance and behavior.

[5] = system: anti-PEG-lipid IgG and IgM antibodies; test: In vivo PEG-lipid antibody induction assay; set-up: species or system mouse; details: CD1 ICR mice, 1:57 SNALP IV at Days 0, 7, 14; plasma Days 7, 14, 21
Experimental: In vivo PEG-lipid antibody induction assays. Animal studies were performed to test for the induction of an antibody response to 2′OMe-modified PLK1424 siRNAs that were encapsulated in a 1:57 SNALP formulation containing the lipid conjugate PEG-cDMA. Six-week-old female CD1 ICR mice were used in this study. […] Mice were then sacrificed on Day 21. The tolerability of the treatment regime was monitored by animal appearance, behavior, and body weight. Anti-PEG-lipid IgG and IgM antibodies in plasma at Days 7, 14, and 21 were measured by ELISA.

[6] = system: IFIT1 mRNA, serum IFNα; details: mouse, in vivo, iv
Experimental: (§1) Balb/c mice (n=4 per group) were administered 2.5 mg/kg siRNA or lipid vehicle; serum IFNα (pg/mL) and IFIT1 mRNA (relative to GAPDH) from whole liver lysates were assessed after 4, 8, and 16 h by ELISA and bDNA assay, respectively. […] (b) Serum IFNα and (c) liver IFIT1 mRNA were assessed 4 h after administration (mean+SD, n=4).
(§2) SNALP-formulated Luc (unmodified) and the 2′OMe-modified Luc-U/U, PLK1424-2/A, PLK773-1/B, or KSP2263-U/U siRNA were administered at 2 mg/kg i.v. to Balb/C mice. (A) IFIT1 relative to GAPDH mRNA in liver and spleen was assessed at 4 h by bDNA analysis. […] Serum IFNα was assessed at 6 h by ELISA. […] Values represent mean+SD (n=4).
(§3) IFIT1 mRNA and serum cytokines were assessed 4-6 h after SNALP administration based on the approximate time of peak response for these markers. In these studies, SNALP-formulated native Luc siRNA (Table 6) was used as a positive control for immune stimulation.
(§4) In vivo immune stimulation assays. […] 6-8 week old Balb/C mice were obtained from Harlan and subject to a two week acclimation period prior to use. Mice were administered SNALP formulated siRNA (2 mg/kg) in PBS via standard intravenous injection in the lateral tail vein. Blood was collected by cardiac puncture and processed as plasma for cytokine analysis. Liver and spleen were collected into RNALater (Sigma Co.) for IFIT1 mRNA analysis.
(§5) Measurement of IFIT1 mRNA in mouse tissues. Murine liver and spleen were processed for bDNA assay to quantitate IFIT1 mRNA as described above. The IFIT1 probe set was specific to mouse IFIT1 mRNA (positions 4-499 of NM—008331) and the GAPDH probe set was specific to mouse GAPDH mRNA (positions 9-319 of NM—008084). Data is shown as the ratio of IFIT1 relative light units (RLU) to GAPDH RLU.
(§6) Cytokine ELISA. All cytokines were quantified using sandwich ELISA kits. These were mouse interferon-α (PBL Biomedical; Piscataway, N.J.) and human and mouse IL-6 (BD Biosciences; San Diego, Calif.).

[7] = system: IFIT1 mRNA, serum IFNα; test: In vivo immune stimulation assay in Balb/c mice (IFIT1 mRNA, serum IFNα); details: SNALP-formulated siRNA IV, 4 h
Experimental: as §1, §2, §3, §4, §5, §6

[8] = system: HepG2 cells; test: HepG2 cell viability assay; format: cell-based, human; details: PLK1424 SNALP 0.31-5 nM, 72 h
[9] = SNALP particle size and polydispersity; format: physicochemical
[10] = system: Hep3B cells; details: SNALP-formulated siRNA, 72 h
Experimental: Cell Viability Assay: Cell viability of in vitro cell cultures was assessed using the commercial reagent CellTiter-Blue® (Promega Corp.; Madison, Wis.), a resazurin dye that is reduced by metabolically active cells to the fluorogenic product resorufin. Various cancer cell lines were cultured in vitro using standard tissue culture techniques. 48-72 hours after treatment with siRNA formulations and/or chemotherapy drugs, the CellTiter-Blue® reagent was added to the culture to quantify the metabolic activity of the cells, which is a measure of cell viability.
Cell Cultures. The cell lines Hep3B, HepG2, HT29, LS174T, and Neuro2a cells were obtained from the American Type Culture Collection (ATCC; Manassas, Va.) and cultured in the recommended basal media with 10% heat inactivated FBS and 1% penicillin-streptomycin. […] For in vitro siRNA activity assays, cell lines were cultured in 96 well plates in the presence of SNALP formulated siRNA. Cell viability was assessed after 72 h using the resazurin dye CellTiter Blue (Promega Corp).

Substance | cell viability / inhibition of cell growth [1] | tumor hPLK-1 mRNA, % of levels in PBS-treated mice [2] [%] | PLK-1 mRNA cleavage product by 5′ RACE-PCR [3] | IFIT1 induction (QG analysis) [4] | IgG / IgM antibody response against PEG-lipid (PEG-cDMA) [5] | serum IFNα / serum cytokine response [6] | IFIT1 mRNA induction in liver and spleen [7] | cell viability [8] | mean SNALP particle size [9] | cell viability / anti-proliferative activity [10]
PLK773: siRNA to human PLK-1, SEQ ID NO:3/4 (UU overhang form 218/219) (chain 1 AGACCUACCUCCGGAUCAA; chain 2 UUGAUCCGGAGGUAGGUCU; RNA, backbone not given here) | inhibiting cell growth | – | – | – | – | – | – | – | – | –
PLK1424-2/A: 2′OMe-modified PLK1424 duplex, SEQ ID NO:214/215 (same SEQ IDs as PLK1424 1/3 of Table 11) (chain 1 AGANCACCCNCCUNAAANAUU; chain 2 UAUUUAANGAGGGUGANCUUU; siRNA; 2'-O-methyl modifications at selected positions, key for n not given here) | – | 45 | generated the predicted 476 bp 5′ RACE-PCR product | no significant IFIT1 induction above that of empty SNALP | substantially less immunogenic than SNALP containing the corresponding unmodified PLK1424 siRNA sequence | no measurable IFNα | no measurable IFNα or increase in IFIT1 mRNA in the liver or spleen | – | – | –
PLK1424: siRNA to human PLK-1, SEQ ID NO:1/2 (UU overhang form 211/212) (chain 1 AGAUCACCCUCCUUAAAUA; chain 2 UAUUUAAGGAGGGUGAUCU; further chemistry not given here) | inhibiting cell growth; also recorded: potent activity | – | – | – | – | – | – | potent activity | 83 nm and 72 nm | potent activity
